Results as given in ChEMBL document CHEMBL4665811, “Sila-Ibuprofen” (J Med Chem, 2020).
pIC50: −log10 of the molar value. ≈ marks a conversion by molar mass, not a printed value.

Tests used:
[1] = target: T1, Prostaglandin G/H synthase 2 (Homo sapiens, UniProt P35354); assay: Inhibition of human recombinant COX2 expressed in Sf9 cells using arachidonic acid and ADHP incubated for 5 mins by fluorimetry
T1 sequence (P35354 whole entry): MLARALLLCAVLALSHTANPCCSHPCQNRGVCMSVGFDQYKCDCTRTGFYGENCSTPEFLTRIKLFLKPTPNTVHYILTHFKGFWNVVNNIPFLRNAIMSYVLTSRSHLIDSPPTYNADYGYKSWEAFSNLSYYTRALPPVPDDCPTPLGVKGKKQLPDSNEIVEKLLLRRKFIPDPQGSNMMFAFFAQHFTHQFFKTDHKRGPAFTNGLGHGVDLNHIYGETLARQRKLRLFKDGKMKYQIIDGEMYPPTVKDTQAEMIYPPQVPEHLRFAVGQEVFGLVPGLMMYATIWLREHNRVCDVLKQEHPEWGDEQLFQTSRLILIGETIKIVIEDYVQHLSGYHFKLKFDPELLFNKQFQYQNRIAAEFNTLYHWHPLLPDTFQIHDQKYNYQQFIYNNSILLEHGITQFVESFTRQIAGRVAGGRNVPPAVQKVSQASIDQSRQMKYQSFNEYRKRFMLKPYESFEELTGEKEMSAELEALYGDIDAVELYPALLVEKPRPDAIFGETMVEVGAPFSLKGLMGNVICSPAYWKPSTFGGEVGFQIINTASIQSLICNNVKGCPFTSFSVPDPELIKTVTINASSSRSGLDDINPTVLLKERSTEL

[2] = Solubility in water by HPLC/UV analysis; assay type: physicochemical
[3] = target: Prostaglandin G/H synthase 1 (Homo sapiens, UniProt P23219); assay: Inhibition of human recombinant COX1 expressed in Sf9 cells using arachidonic acid and ADHP incubated for 3 mins by fluorimetry
[4] = system: C6; assay: Toxicity in rat C6 cells assessed as effect on cell proliferation at 300 uM incubated up to 3 days by LDH release assay; assay type: cell-based; conditions: c6, 72 h, time <=3 day
[5] = system: C6; assay: Toxicity in rat C6 cells assessed as effect on cell viability up to 300 uM incubated for 72 hrs by LDH release assay; assay type: cell-based; conditions: c6, 72 h
[6] = system: C6; assay: Toxicity in rat C6 cells assessed as effect on cell morphology at 1000 uM incubated for 3 days; assay type: cell-based; conditions: c6, 72 h, time 3 day
[7] = system: C6; assay: Toxicity in rat C6 cells assessed as effect on extracellular lactate dehydrogenase activity at 1000 uM incubated for 3 days by LDH release assay; assay type: cell-based; conditions: c6, 72 h, time 3 day
[8] = system: C6; assay: Toxicity in rat C6 cells assessed as effect on cellular protein per well up to 300 uM incubated for 72 hrs; assay type: cell-based; conditions: c6, 72 h
[9] = system: C6; assay: Toxicity in rat C6 cells assessed as effect on cellular viability up to 300 uM incubated for 72 hrs by WST1 assay; assay type: cell-based; conditions: c6, 72 h
[10] = system: C6; assay: Toxicity in rat C6 cells assessed as effect on cellular lactate production to 300 uM incubated for 72 hrs; assay type: cell-based; conditions: c6, 72 h
[11] = system: C6; assay: Toxicity in rat C6 cells assessed as reduction in cell proliferation at 1000 uM incubated up to 3 days by LDH release assay; assay type: cell-based; conditions: c6, 72 h, time <=3 day
[12] = system: C6; assay: Toxicity in rat C6 cells assessed as effect on cellular viability at 1000 uM incubated up to 3 days by WST1 assay; assay type: cell-based; conditions: c6, 72 h, time <=3 day
[13] = system: C6; assay: Toxicity in rat C6 cells assessed as reduction in protein content at 1000 uM incubated up to 3 days; assay type: cell-based; conditions: c6, 72 h, time <= day

Chain of Prostaglandin G/H synthase 1 (P23219 whole entry): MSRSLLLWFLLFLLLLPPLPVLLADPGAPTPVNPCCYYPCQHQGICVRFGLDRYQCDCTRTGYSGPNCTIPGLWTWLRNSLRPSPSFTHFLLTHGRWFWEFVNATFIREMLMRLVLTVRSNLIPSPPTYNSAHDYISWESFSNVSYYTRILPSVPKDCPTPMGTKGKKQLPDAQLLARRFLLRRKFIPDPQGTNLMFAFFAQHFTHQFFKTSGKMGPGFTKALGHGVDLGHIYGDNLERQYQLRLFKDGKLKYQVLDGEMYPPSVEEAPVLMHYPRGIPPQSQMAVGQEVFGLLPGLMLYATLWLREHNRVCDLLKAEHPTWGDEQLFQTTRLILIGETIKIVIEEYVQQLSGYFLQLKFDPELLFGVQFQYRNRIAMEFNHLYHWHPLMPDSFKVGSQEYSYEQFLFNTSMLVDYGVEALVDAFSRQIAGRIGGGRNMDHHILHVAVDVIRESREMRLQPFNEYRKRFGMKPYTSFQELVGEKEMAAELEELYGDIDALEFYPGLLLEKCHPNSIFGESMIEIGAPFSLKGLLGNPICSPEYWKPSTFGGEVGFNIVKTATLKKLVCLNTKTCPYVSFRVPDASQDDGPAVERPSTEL

Row | pIC50 [1] | solubility [2] | pIC50 [3] | Structure (SMILES) | Activity [4] | Activity [5] | Activity [6] | Activity [7] | Activity [8] | Activity [9] | Activity [10] | Activity [11] | Activity [12] | Activity [13]
1 | 5.08 | 83 µg/mL (≈ 373 µM) | 4.59 | CC(C(=O)O)c1ccc(C[SiH](C)C)cc1 (stereo unspecified) | Non-Toxic | Non-Toxic | Non-Toxic | Non-Toxic | Non-Toxic | Non-Toxic | Non-Toxic | Toxic | Toxic | Toxic
2 |  |  |  | CC(C)Cc1ccc(C(C)C(=O)O)cc1 (stereo unspecified) [IBUPROFEN] | Non-Toxic | Non-Toxic | Non-Toxic | Non-Toxic | Non-Toxic | Non-Toxic | Non-Toxic | Toxic |  | 
